Tested on: HuapoAI transgenic mice
Assay: Evaluation of triglyceride and cholesterol level in HuapoAI transgenic mice
Assay type: in vivo
Details: 100 mg/kg oral gavage daily for 7 days; vehicle about 140 to 180 mg/dl
Description: Five to six week old male mice, transgenic for human apoAI [C57B1/6-tgn(apoa1)1rub, Jackson Laboratory, Bar Harbor, Me.] are housed five per cage (10″×20″×8″ with aspen chip bedding) with food (Purina 5001) and water available at all times. After an acclimation period of 2 weeks, animals are individually identified by ear notches, weighed and assigned to groups based on body weight. Beginning the following morning, mice are dosed daily by oral gavage for 7 days using a 20 gauge, 1½″ curved disposable feeding needle. Treatments are test compounds (30 mg/kg), a positive control (fenofibrate, 100 mg/kg) or vehicle [1% carboxymethylcellulose (w/v)/0.25% Tween80 (w/v); 0.2 ml/mouse]. […]
The animals dosed with vehicle have average triglycerides values of about 60 to 80 mg/dl, which are reduced by the positive control fenofibrate (33-58 mg/dl with a mean reduction of 37%). […] Test compounds evaluated in terms of percent increase in the area under the curve. […]
Glucose is measured […] by using commercially purchased reagents (Sigma #315-500). […] The absorbance of the dye produced is linearly related to the analyte in the sample. […] Standards (Sigma #339-11, Sigma #16-11, and Sigma #CCO0534 for glucose, triglycerides and total cholesterol, respectively), quality control plasma (Sigma #A2034), and samples (2 or 5 μl/well) are measured in duplicate using 200 μl of reagent. […]

SMILES: CC(C)OC(=O)C(C)(C)Oc1ccc(C(=O)c2ccc(Cl)cc2)cc1 [fenofibrate]
- average total serum cholesterol values: 190 to 280 mg/dL

Reference: patent publication US20080207685A1, “Heterocyclic Compounds As Modulators Of Peroxisome Proliferator Activated Receptors, Useful For The Treatment And/Or Prevention Of Disorders Modulated By A Ppar” (Eli Lilly And Company, priority 2003, published 2008)
